Source: US9144239B2, “Macrocyclic picolinamides as fungicides” (DOW AGROSCIENCES LLC, priority 2012, dated 2015)
Read-outs that look alike come from different tables or passages of the source.

Key:
[1] = test system: Mycosphaerella graminicola; anamorph: Septoria tritici; test: Fungicidal activity: leaf blotch of wheat (SEPTTR), wheat seedlings; type: in vivo; details: Zymoseptoria tritici
Method in brief: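 Compounds in acetone were diluted with nine volumes of water containing 110 ppm Triton X-100 and sprayed to run-off on Yuma wheat seedlings at first-leaf stage. Septoria tritici spores were inoculated before or after treatment, followed by dew chambers at 100% RH and 20 °C, then greenhouse at 20 °C. Severity (0–100%) was scored once untreated plants were fully diseased; control was calculated relative to untreated plants.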

[2] = test system: Puccinia triticina; synonym: Puccinia recondita f. sp. tritici; test: Fungicide mobility (dropline mobility test): wheat brown rust (PUCCRT); type: in vivo; details: 1 ug/leaf
Procedure: Evaluation of Fungicide Mobility: Wheat Brown Rust (Puccinia triticina; Synonym: Puccinia recondita f. sp. tritici; Bayer Code PUCCRT) “Yuma” wheat seedlings were used in the test. One mg of compound was dissolved in 9 μl of EC blank (emulsifiable concentrate) and 500 μl of acetone. Acetone was then evaporated overnight by leaving the vial open in a fume hood. Two milliliters of water containing 110 ppm Triton X-100 was added to each vial to prepare application solutions. A 2 μl drop of formulated material was applied to a marked line on the adaxial surface 5 cm from the leaf tip of the primary leaves. The primary leaves were kept in a horizontal position. Each treatment had 6 replicates. Plants were inoculated with PUCCRT 1-day after (1DPM) or 3-day prior to (3DCM) compound applications. When rust was fully expressed on primary leaves on control plants, the zone of treated leaves that was disease-free in the acropetal direction was measured with a ruler and converted to percent of the distance from marked line to leaf tip.

[3] = test system: Puccinia triticina; synonym: Puccinia recondita f. sp. tritici; test: Fungicidal activity: wheat brown rust (PUCCRT), wheat seedlings; type: in vivo
Method in brief: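 Wheat (Yuma) seedlings at first-leaf stage, inoculated with Puccinia triticina spores before or after treatment, held overnight in dark dew room at 22° C, 100% RH, then greenhouse at 24° C. Acetone solutions diluted with nine volumes water containing 110 ppm Triton X-100, sprayed to run-off. Percent disease control derived from severity (0–100%) relative to untreated plants.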

[4] = 24 h, 100 ppm, 1 Day Protectant, wheat, read-out: Disease Control SEPTTR 1DP
[5] = 72 h, 100 ppm, 3 Day Curative, wheat, read-out: Disease Control SEPTTR 3DC
[6] = 24 h, 1 Day Protectant Mobility, read-out: Dropline Mobility Test PUCCRT 1DPM
[7] = 24 h, 100 ppm, 1 Day Protectant, wheat, read-out: Disease Control PUCCRT 1DP
[8] = 72 h, 100 ppm, 3 Day Curative, wheat, read-out: Disease Control PUCCRT 3DC
[9] = 24 h, read-out: Disease Control SEPTTR 1DP
[10] = 72 h, read-out: Disease Control SEPTTR 3DC
[11] = 72 h, 3 Day Curative Mobility, read-out: Dropline Mobility Test PUCCRT 3DCM
[12] = 24 h, read-out: Disease Control PUCCRT 1DP
[13] = 72 h, read-out: Disease Control PUCCRT 3DC

| Compound | melting point [°C] | pest or weed control at 100 ppm [1, 4] [%] | pest or weed control at 100 ppm [1, 5] [%] | pest or weed control at 1 µg/leaf [2, 6] [%] | pest or weed control at 100 ppm [3, 7] [%] | pest or weed control at 100 ppm [3, 8] [%] | pest or weed control at 100 ppm [1, 9] [%] | pest or weed control at 100 ppm [1, 10] [%] | pest or weed control at 1 µg/leaf [2, 11] [%] | pest or weed control at 100 ppm [3, 12] [%] | pest or weed control at 100 ppm [3, 13] [%] |
| --- | --- | --- | --- | --- | --- | --- | --- | --- | --- | --- | --- |
| CCCCO[C@H]1COC[C@H](N)C(=O)O[C@@H](C)[C@@H]1OCc1ccccc1.Cl | 174 to 177 | – | – | – | – | – | – | – | – | – | – |
| C[C@@H]1OC(=O)[C@@H](N)COC[C@H](Oc2ccccc2)[C@H]1Oc1ccccc1.Cl | 227 to 229 | – | – | – | – | – | – | – | – | – | – |
| C[C@@H]1OC(=O)[C@@H](N)COC[C@H](OCC2CC2)[C@H]1OCC1CC1.Cl | 181 to 185 | – | – | – | – | – | – | – | – | – | – |
| CC(C)CO[C@H]1[C@H](C)OC(=O)[C@@H](N)COC[C@@H]1Oc1ccc(F)cc1.Cl | 197 to 200 | – | – | – | – | – | – | – | – | – | – |
| Cc1ccc(O[C@H]2[C@H](C)OC(=O)[C@@H](N)COC[C@@H]2Oc2ccc(C)cc2)cc1.Cl | 213 to 216 | – | – | – | – | – | – | – | – | – | – |
| C[C@@H]1OC(=O)[C@@H](N)COC[C@H](Oc2ccccc2)[C@H]1OC1CCCC1.Cl | 217 to 219 | – | – | – | – | – | – | – | – | – | – |
| COc1ccc(O[C@H]2[C@H](C)OC(=O)[C@@H](N)COC[C@@H]2OC(=O)C(C)C)cc1.Cl | 207 to 208 | – | – | – | – | – | – | – | – | – | – |
| Cc1cc(C)cc(O[C@H]2[C@H](C)OC(=O)[C@@H](N)COC[C@@H]2Oc2cc(C)cc(C)c2)c1.Cl | 212 | – | – | – | – | – | – | – | – | – | – |
| CC(C)CO[C@H]1COC[C@H](N)C(=O)O[C@@H](C)[C@@H]1Oc1cccc(Cl)c1.Cl | 168 to 169 | – | – | – | – | – | – | – | – | – | – |
| COc1ccnc(C(=O)N[C@H]2CO[C@@H](C)[C@H](OCC(C)C)[C@@H](OCC(C)C)[C@H](C)OC2=O)c1O [Compound 26] | – | 80 to 100 | 0 to 80 | 0 to 80 | 80 to 100 | 80 to 100 | – | – | – | – | – |
| CCCO[C@H]1[C@H](C)OC(=O)[C@@H](NC(=O)c2nccc(OC)c2O)COC[C@@H]1OCCC [Compound 58, 3-hydroxy-4-methoxy-N-((3S,7S,8S,9S)-9-methyl-2-oxo-7,8-dipropoxy-1,5-dioxonan-3-yl)picolinamide] | – | – | – | 80 to 100 | – | – | 0 to 80 | 0 to 80 | 0 to 80 | 80 to 100 | 80 to 100 |
| CCCO[C@H]1[C@H](C)OC(=O)[C@@H](NC(=O)c2nccc(OC)c2OCOC(C)=O)COC[C@@H]1OCCC [Compound 61] | – | 80 to 100 | 80 to 100 | 80 to 100 | 80 to 100 | 80 to 100 | – | – | 0 to 80 | – | – |
| CCCCCO[C@H]1[C@H](C)OC(=O)[C@@H](NC(=O)c2nccc(OC)c2O)COC[C@@H]1OCCCCC [Compound 62] | – | – | 80 to 100 | 0 to 80 | – | 80 to 100 | – | – | – | – | – |
| CCCCCO[C@H]1[C@H](C)OC(=O)[C@@H](NC(=O)c2nccc(OC)c2OCOC(C)=O)COC[C@@H]1OCCCCC [Compound 64] | – | 80 to 100 | 80 to 100 | 0 to 80 | 80 to 100 | 80 to 100 | – | – | 0 to 80 | – | – |
| CCCCO[C@H]1COC[C@H](NC(=O)c2nccc(OC)c2O)C(=O)O[C@@H](C)[C@@H]1OC(=O)c1ccccc1 [Compound 66] | – | 80 to 100 | 0 to 80 | 0 to 80 | 80 to 100 | 80 to 100 | – | – | 0 to 80 | – | – |
| COc1ccnc(C(=O)N[C@H]2COC[C@H](OCCCC(F)(F)F)[C@@H](OCCCC(F)(F)F)[C@H](C)OC2=O)c1O [Compound 67] | – | 0 to 80 | 0 to 80 | 0 to 80 | 80 to 100 | 0 to 80 | – | – | 0 to 80 | – | – |
| CCCCO[C@H]1COC[C@H](NC(=O)c2nccc(OC)c2OCOC(C)=O)C(=O)O[C@@H](C)[C@@H]1OC(=O)c1ccccc1 [Compound 69] | – | 80 to 100 | 80 to 100 | 0 to 80 | 80 to 100 | 80 to 100 | – | – | 0 to 80 | – | – |
| COc1ccnc(C(=O)N[C@H]2COC[C@H](OCC(C)C)[C@@H](O)[C@H](C)OC2=O)c1O [Compound 70] | – | 0 to 80 | 0 to 80 | 0 to 80 | 0 to 80 | 0 to 80 | – | – | 0 to 80 | – | – |
| COc1ccnc(C(=O)N[C@H]2COC[C@H](OC3CCCCC3)[C@@H](O)[C@H](C)OC2=O)c1O [Compound 74] | – | 0 to 80 | 0 to 80 | 0 to 80 | 0 to 80 | 0 to 80 | – | – | 0 to 80 | – | – |
| COc1ccnc(C(=O)N[C@H]2COC[C@H](OCC(C)C)[C@@H](OC3CCCCC3)[C@H](C)OC2=O)c1O [Compound 75] | – | 80 to 100 | 0 to 80 | 0 to 80 | 80 to 100 | 80 to 100 | – | – | 0 to 80 | – | – |
| COc1ccnc(C(=O)N[C@H]2COC[C@H](OC3CCCCC3)[C@@H](OCC(C)C)[C@H](C)OC2=O)c1OCOC(C)=O [Compound 76] | – | 80 to 100 | 80 to 100 | 80 to 100 | 80 to 100 | 80 to 100 | – | – | 0 to 80 | – | – |
| COc1ccnc(C(=O)N[C@H]2COC[C@H](Oc3ccccc3)[C@@H](Oc3ccccc3)[C@H](C)OC2=O)c1O [Compound 81, 3-hydroxy-4-methoxy-N-((3S,7S,8S,9S)-9-methyl-2-oxo-7,8-diphenoxy-1,5-dioxonan-3-yl)picolinamide] | – | – | – | 80 to 100 | – | – | 80 to 100 | 80 to 100 | 0 to 80 | 80 to 100 | 80 to 100 |
| CCOCC(=O)OCOc1c(OC)ccnc1C(=O)N[C@H]1COC[C@H](Oc2ccc(F)cc2)[C@@H](Oc2ccc(F)cc2)[C@H](C)OC1=O [Compound 230] | – | 80 to 100 | 80 to 100 | – | 80 to 100 | 80 to 100 | – | – | – | – | – |
| COc1ccnc(C(=O)N[C@H]2COC[C@H](OCC3CC3)[C@@H](OCC3CC3)[C@H](C)OC2=O)c1OCOC(C)=O [Compound 233] | – | 80 to 100 | 0 to 80 | – | 80 to 100 | 80 to 100 | – | – | – | – | – |
| COc1ccnc(C(=O)N[C@H]2COC[C@H](Oc3ccccc3)[C@@H](Oc3ccccc3)[C@H](C)OC2=O)c1OCOC(=O)C(C)C [Compound 234] | – | 80 to 100 | 80 to 100 | 80 to 100 | 80 to 100 | 80 to 100 | – | – | – | – | – |
| COCCC(=O)Oc1c(OC)ccnc1C(=O)N[C@H]1COC[C@H](Oc2ccccc2)[C@@H](Oc2ccccc2)[C@H](C)OC1=O [Compound 235] | – | 80 to 100 | 80 to 100 | 0 to 80 | 80 to 100 | 80 to 100 | – | – | – | – | – |
| COc1ccnc(C(=O)N[C@H]2COC[C@H](Oc3ccccc3)[C@@H](Oc3ccccc3)[C@H](C)OC2=O)c1OC(C)=O [Compound 236] | – | 80 to 100 | 80 to 100 | 0 to 80 | 80 to 100 | 80 to 100 | – | – | – | – | – |
| COCCC(=O)Oc1c(OC)ccnc1C(=O)N[C@H]1COC[C@H](OCC(C)C)[C@@H](OCC(C)C)[C@H](C)OC1=O [Compound 237, 2-(((3S,7S,8S,9S)-7,8-diisobutoxy-9-methyl-2-oxo-1,5-dioxonan-3-yl)carbamoyl)-4-methoxypyridin-3-yl 3-methoxypropanoate] | – | 80 to 100 | 80 to 100 | 80 to 100 | 80 to 100 | 80 to 100 | – | – | 80 to 100 | – | – |
| COc1ccnc(C(=O)N[C@H]2COC[C@H](OCC(C)C)[C@@H](OCC(C)C)[C@H](C)OC2=O)c1OC(C)=O [Compound 238] | – | 80 to 100 | 80 to 100 | 80 to 100 | 80 to 100 | 80 to 100 | – | – | 80 to 100 | – | – |
